Assay results as given in patent publication US20250230155A1 (Vanderbilt University, priority 2021, published 2025).

Target: T1, human mAChR M4 (Homo sapiens, UniProt P08173)
T1 construct: expressed in transfected cells
T1 sequence (P08173 1-479): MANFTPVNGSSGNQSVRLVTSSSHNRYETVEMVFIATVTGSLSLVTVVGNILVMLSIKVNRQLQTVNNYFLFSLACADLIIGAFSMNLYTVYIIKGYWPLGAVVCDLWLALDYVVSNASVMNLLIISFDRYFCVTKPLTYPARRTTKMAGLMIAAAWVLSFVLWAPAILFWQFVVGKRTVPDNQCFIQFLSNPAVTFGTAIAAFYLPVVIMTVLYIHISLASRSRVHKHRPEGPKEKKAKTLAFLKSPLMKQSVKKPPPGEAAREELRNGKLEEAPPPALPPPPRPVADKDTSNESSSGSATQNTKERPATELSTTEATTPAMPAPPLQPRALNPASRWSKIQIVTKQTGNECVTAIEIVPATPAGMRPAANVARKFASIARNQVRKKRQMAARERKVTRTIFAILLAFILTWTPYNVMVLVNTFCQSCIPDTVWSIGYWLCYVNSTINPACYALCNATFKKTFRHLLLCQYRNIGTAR
Assay: mAChR M4 cell-based functional assay (calcium mobilization, CHO-K1 hM4-Gqi5 cells)
Settings: for Emax at 30 µM: CHO-K1, % ACh maximum at 30 μM, human M4; for EC50: positive allosteric modulator activity, increase in the EC20 acetylcholine response, CHO-K1 hM4-Gqi5 cells, read-out: Human M4 EC50
How it was run: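 CHO-K1 cells stably expressing human M4 with chimeric Gqi5, loaded with Fluo-4 AM; compounds given as 11-point 1:3 curves and calcium flux read on FDSS at 1 Hz. Acetylcholine EC20 added at 144 s, EC80 at 230 s; agonist, PAM (EC20 potentiation) and antagonist (EC80 inhibition) EC50/Emax from four-parameter fits.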

SMILES: Cc1c(C(=O)Nc2ccncc2)nnc(N2CCc3ncc(C(F)(F)F)cc3C2)c1C [Example 466, 4,5-dimethyl-N-(pyridin-4-yl)-6-(3-(trifluoromethyl)-7,8-dihydro-1,6-naphthyridin-6(5H)-yl)pyridazine-3-carboxamide]
- Emax at 30 µM: 98%
- EC50: 111 nM

SMILES: Cc1c(C(=O)NCc2ccncc2)nnc(N2CCc3ncc(C(F)(F)F)cc3C2)c1C [Example 467, 4,5-dimethyl-N-(pyridin-4-ylmethyl)-6-(3-(trifluoromethyl)-7,8-dihydro-1,6-naphthyridin-6(5H)-yl)pyridazine-3-carboxamide]
- Emax at 30 µM: 98%
- EC50: 129 nM

SMILES: Cc1cnc2c(c1)CN(c1nnc(C(=O)NCc3cncs3)c(C)c1C)CC2 [Example 468, 4,5-dimethyl-6-(3-methyl-7,8-dihydro-1,6-naphthyridin-6(5H)-yl)-N-(thiazol-5-ylmethyl)pyridazine-3-carboxamide]
- Emax at 30 µM: 108%
- EC50: 119 nM

SMILES: Cc1cnc2c(c1)CN(c1nnc(C(=O)Nc3ccncc3)c(C)c1C)CC2 [Example 469, 4,5-dimethyl-6-(3-methyl-7,8-dihydro-1,6-naphthyridin-6(5H)-yl)-N-(pyridin-4-yl)pyridazine-3-carboxamide]
- Emax at 30 µM: 98%
- EC50: 114 nM

SMILES: Cc1cnc2c(c1)CN(c1nnc(C(=O)NCc3csc4ccccc34)c(C)c1C)CC2 [Example 470, N-(benzo[b]thiophen-3-ylmethyl)-4,5-dimethyl-6-(3-methyl-7,8-dihydro-1,6-naphthyridin-6(5H)-yl)pyridazine-3-carboxamide]
- Emax at 30 µM: 102%
- EC50: 278 nM

SMILES: Cc1cnc2c(c1)CN(c1nnc(C(=O)NCc3cnc4ccccc4c3)c(C)c1C)CC2 [Example 471, 4,5-dimethyl-6-(3-methyl-7,8-dihydro-1,6-naphthyridin-6(5H)-yl)-N-(quinolin-3-ylmethyl)pyridazine-3-carboxamide]
- Emax at 30 µM: 91%
- EC50: 251 nM

SMILES: Cc1cnc2c(c1)CN(c1nnc(C(=O)NCc3ccncc3C)c(C)c1C)CC2 [Example 472, 4,5-dimethyl-6-(3-methyl-7,8-dihydro-1,6-naphthyridin-6(5H)-yl)-N-((3-methylpyridin-4-yl)methyl)pyridazine-3-carboxamide]
- Emax at 30 µM: 99%
- EC50: 71 nM

SMILES: Cc1cc(C(=O)NCc2ccncc2)cnc1N1CCc2ncc(Nc3ccnn3C)cc2C1 [Example 473, 5-methyl-6-(3-((1-methyl-1H-pyrazol-5-yl)amino)-7,8-dihydro-1,6-naphthyridin-6(5H)-yl)-N-(pyridin-4-ylmethyl)nicotinamide]
- Emax at 30 µM: 87%
- EC50: 324 nM

SMILES: Cc1cnccc1CNC(=O)c1cnc(N2CCc3ncc(Nc4ccnn4C)cc3C2)c(C)c1 [Example 474, 5-methyl-6-(3-((1-methyl-1H-pyrazol-5-yl)amino)-7,8-dihydro-1,6-naphthyridin-6(5H)-yl)-N-((3-methylpyridin-4-yl)methyl)nicotinamide]
- Emax at 30 µM: 89%
- EC50: 206 nM

SMILES: Cc1cc(C(=O)NC2CC3(COC3)C2)cnc1N1CCc2ncc(-c3cn(C)nc3C)cc2C1 [Example 475, 6-(3-(1,3-dimethyl-1H-pyrazol-4-yl)-7,8-dihydro-1,6-naphthyridin-6(5H)-yl)-5-methyl-N-(2-oxaspiro[3.3]heptan-6-yl)nicotinamide]
- Emax at 30 µM: 64%
- EC50: 1740 nM

SMILES: Cc1cc(C(=O)NC2CC(F)(F)C2)cnc1N1CCc2ncc(-c3cn(C)nc3C)cc2C1 [Example 476, N-(3,3-difluorocyclobutyl)-6-(3-(1,3-dimethyl-1H-pyrazol-4-yl)-7,8-dihydro-1,6-naphthyridin-6(5H)-yl)-5-methylnicotinamide]
- Emax at 30 µM: 67%
- EC50: 752 nM

SMILES: Cc1cc(C(=O)NC23CC(F)(C2)C3)cnc1N1CCc2ncc(-c3cn(C)nc3C)cc2C1 [Example 477, 6-(3-(1,3-dimethyl-1H-pyrazol-4-yl)-7,8-dihydro-1,6-naphthyridin-6(5H)-yl)-N-(3-fluorobicyclo[1.1.1]pentan-1-yl)-5-methylnicotinamide]
- Emax at 30 µM: 80%
- EC50: 2470 nM

SMILES: Cc1cc(C(=O)NCc2ccc(-n3ccnc3)nc2)cnc1N1CCc2ncc(-c3cn(C)nc3C)cc2C1 [Example 478, N-((6-(1H-imidazol-1-yl)pyridin-3-yl)methyl)-6-(3-(1,3-dimethyl-1H-pyrazol-4-yl)-7,8-dihydro-1,6-naphthyridin-6(5/)-yl)-5-methylnicotinamide]
- Emax at 30 µM: 50%
- EC50: 379 nM

SMILES: Cc1cc(C(=O)NCc2ccc3ncnn3c2)cnc1N1CCc2ncc(-c3cn(C)nc3C)cc2C1 [Example 479, N-([1,2,4]triazolo[1,5-a]pyridin-6-ylmethyl)-6-(3-(1,3-dimethyl-1/- pyrazol-4-yl)-7,8-dihydro-1,6-naphthyridin-6(5H)-yl)-5-methylnicotinamide]
- Emax at 30 µM: 57%
- EC50: 886 nM

SMILES: Cc1cc(C(=O)NCc2ccc(N3CCOCC3)nc2)cnc1N1CCc2ncc(-c3cn(C)nc3C)cc2C1 [Example 480, 6-(3-(1,3-dimethyl-1H-pyrazol-4-yl)-7,8-dihydro-1,6-naphthyridin-6(5H)-yl)-5-methyl-N-((6-morpholinopyridin-3-yl)methyl)nicotinamide]
- Emax at 30 µM: 76%
- EC50: 1390 nM

SMILES: Cc1cc(C(=O)NCc2ccc(Cl)nc2)cnc1N1CCc2ncc(-c3cn(C)nc3C)cc2C1 [Example 481, N-((6-chloropyridin-3-yl)methyl)-6-(3-(1,3-dimethyl-1H-pyrazol-4-yl)-7,8-dihydro-1,6-naphthyridin-6(5H)-yl)-5-methylnicotinamide]
- Emax at 30 µM: 58%
- EC50: 1060 nM

SMILES: Cc1cc(C(=O)NCc2ccncc2)cnc1N1CCc2ncc(-c3cn(C)nc3C)cc2C1 [Example 482, 6-(3-(1,3-dimethyl-1H-pyrazol-4-yl)-7,8-dihydro-1,6-naphthyridin-6(5H)-yl)-5-methyl-N-(pyridin-4-ylmethyl)nicotinamide]
- Emax at 30 µM: 78%
- EC50: 468 nM

SMILES: Cc1cc(C(=O)NCc2ccncc2)cnc1N1CCc2ncc(-c3ccc(C4CC4)nc3)cc2C1 [Example 483, 6-(3-(6-cyclopropylpyridin-3-yl)-7,8-dihydro-1,6-naphthyridin-6(5H)-yl)-5-methyl-N-(pyridin-4-ylmethyl)nicotinamide]
- Emax at 30 µM: 84%
- EC50: 313 nM

SMILES: Cc1cc(C(=O)NCc2cscn2)cnc1N1CCc2ncc(-c3ccc(C4CC4)nc3)cc2C1 [Example 484, 6-(3-(6-cyclopropylpyridin-3-yl)-7,8-dihydro-1,6-naphthyridin-6(5H)-yl)-5-methyl-N-(thiazol-4-ylmethyl)nicotinamide]
- Emax at 30 µM: 88%
- EC50: 176 nM

SMILES: Cc1cc(C(=O)NCc2cncs2)cnc1N1CCc2ncc(-c3ccc(N(C)C)nc3)cc2C1 [Example 485, 6-(3-(6-(dimethylamino)pyridin-3-yl)-7,8-dihydro-1,6-naphthyridin-6(5H)-yl)-5-methyl-N-(thiazol-5-ylmethyl)nicotinamide]
- Emax at 30 µM: 79%
- EC50: 247 nM

SMILES: Cc1cnc2c(c1)CN(c1nnc(C(=O)NCc3ccncc3)c(C)c1C)CC2 [Example 486, 4,5-dimethyl-6-(3-methyl-7,8-dihydro-1,6-naphthyridin-6(5H)-yl)-N-(pyridin-4-ylmethyl)pyridazine-3-carboxamide]
- Emax at 30 µM: 97%
- EC50: 286 nM

SMILES: Cc1nn(C)cc1-c1cnc2c(c1)CN(c1ncc(C(N)=O)cc1C(F)(F)F)CC2 [Example 487, 6-(3-(1,3-dimethyl-1H-pyrazol-4-yl)-7,8-dihydro-1,6-naphthyridin-6(5H)-yl)-5-(trifluoromethyl)nicotinamide]
- Emax at 30 µM: 38%
- EC50: 2880 nM

SMILES: Cc1cc(C(=O)N2CCCC2)nnc1N1CCc2ncc(N3CCCn4nccc43)cc2C1 [Example 488, (6-(3-(6,7-dihydropyrazolo[1,5-a]pyrimidin-4(5H)-yl)-7,8-dihydro-1,6-naphthyridin-6(5H)-yl)-5-methylpyridazin-3-yl)(pyrrolidin-1-yl)methanone]
- Emax at 30 µM: 89%
- EC50: 217 nM

SMILES: Cc1cc(C(=O)NCc2cncs2)nnc1N1CCc2ncc(N3CCCn4nccc43)cc2C1 [Example 489, 6-(3-(6,7-dihydropyrazolo[1,5-a]pyrimidin-4(5H)-yl)-7,8-dihydro-1,6-naphthyridin-6(5H)-yl)-5-methyl-N-(thiazol-5-ylmethyl)pyridazine-3-carboxamide]
- Emax at 30 µM: 95%
- EC50: 5 nM

SMILES: Cc1cc(C(=O)NCc2ccncc2)nnc1N1CCc2ncc(N3CCCn4nccc43)cc2C1 [Example 490, 6-(3-(6,7-dihydropyrazolo[1,5-a]pyrimidin-4(5H)-yl)-7,8-dihydro-1,6-naphthyridin-6(5H)-yl)-5-methyl-N-(pyridin-4-ylmethyl)pyridazine-3-carboxamide]
- Emax at 30 µM: 100%
- EC50: 16 nM

SMILES: Cc1cnccc1CNC(=O)c1cc(C)c(N2CCc3ncc(N4CCCn5nccc54)cc3C2)nn1 [Example 491, 6-(3-(6,7-dihydropyrazolo[1,5-a]pyrimidin-4(5H)-yl)-7,8-dihydro-1,6-naphthyridin-6(5H)-yl)-5-methyl-N-((3-methylpyridin-4-yl)methyl)pyridazine-3-carboxamide]
- Emax at 30 µM: 91%
- EC50: 15 nM
